≈ marks a conversion by molar mass, not a printed value.
What was measured:
Assay type in all cases: functional
[1] = tested on: Mycobacterium tuberculosis; assay: Antitubercular activity against Mycobacterium tuberculosis H37Rv assessed as growth inhibition by BACTEC MGIT method
[2] = tested on: Candida albicans; assay: Antimicrobial activity against Candida albicans MTCC 183 assessed as diameter of growth zone inhibition by agar streak dilution method
[3] = tested on: Aspergillus niger; assay: Antimicrobial activity against Aspergillus niger MTCC 282 assessed as diameter of growth zone inhibition by agar streak dilution method
[4] = tested on: Pseudomonas aeruginosa; assay: Antimicrobial activity against Pseudomonas aeruginosa MTCC 741 assessed as diameter of growth zone inhibition by agar streak dilution method
[5] = tested on: Escherichia coli; assay: Antimicrobial activity against Escherichia coli MTCC 739 assessed as diameter of growth zone inhibition by agar streak dilution method
[6] = tested on: Staphylococcus aureus; assay: Antimicrobial activity against Staphylococcus aureus MTCC 96 assessed as diameter of growth zone inhibition by agar streak dilution method
[7] = tested on: Bacillus subtilis; assay: Antimicrobial activity against Bacillus subtilis MTCC 430 assessed as diameter of growth zone inhibition by agar streak dilution method
[8] = tested on: Candida albicans; assay: Antimicrobial activity against Candida albicans MTCC 183 assessed as growth inhibition by agar streak dilution method
[9] = tested on: Aspergillus niger; assay: Antimicrobial activity against Aspergillus niger MTCC 282 assessed as growth inhibition by agar streak dilution method
[10] = tested on: Pseudomonas aeruginosa; assay: Antimicrobial activity against Pseudomonas aeruginosa MTCC 741 assessed as growth inhibition by agar streak dilution method
[11] = tested on: Escherichia coli; assay: Antimicrobial activity against Escherichia coli MTCC 739 assessed as growth inhibition by agar streak dilution method
[12] = tested on: Bacillus subtilis; assay: Antimicrobial activity against Bacillus subtilis MTCC 430 assessed as growth inhibition by agar streak dilution method
[13] = tested on: Staphylococcus aureus; assay: Antimicrobial activity against Staphylococcus aureus MTCC 96 assessed as growth inhibition by agar streak dilution method

Row | SMILES | MIC [1] [µg/mL] | diameter of the inhibition zone (DIZ) [2] [mm] | diameter of the inhibition zone (DIZ) [3] [mm] | diameter of the inhibition zone (DIZ) [4] [mm] | diameter of the inhibition zone (DIZ) [5] [mm] | diameter of the inhibition zone (DIZ) [6] [mm] | diameter of the inhibition zone (DIZ) [7] [mm] | MIC [8] [µg/mL] | MIC [9] [µg/mL] | MIC [10] [µg/mL] | MIC [11] [µg/mL] | MIC [12] [µg/mL] | MIC [13] [µg/mL]
1 | O=C1CSC(c2cc3ccccc3nc2S)N1c1ccccc1 (stereo not given) | 1000 (≈ 2950 µM) | 15 | 16 | 17 | 16 | 19 | 17 | 100 (≈ 295 µM) | 100 (≈ 295 µM) | 100 (≈ 295 µM) | 100 (≈ 295 µM) | 100 (≈ 295 µM) | 100 (≈ 295 µM)
2 | Cc1ccccc1N1C(=O)CSC1c1cc2ccccc2nc1S (stereo not given) | 500 (≈ 1420 µM) | 17 | 16 | 14 | 15 | 20 | 15 | 100 (≈ 284 µM) | 100 (≈ 284 µM) | 1000 (≈ 2840 µM) | 100 (≈ 284 µM) | 100 (≈ 284 µM) | 100 (≈ 284 µM)
3 | Cc1cccc(N2C(=O)CSC2c2cc3ccccc3nc2S)c1 (stereo not given) | 500 (≈ 1420 µM) | 19 | 20 | 18 | 19 | 21 | 19 | 100 (≈ 284 µM) | 100 (≈ 284 µM) | 100 (≈ 284 µM) | 100 (≈ 284 µM) | 100 (≈ 284 µM) | 62.5 (≈ 177 µM)
4 | Cc1ccc(N2C(=O)CSC2c2cc3ccccc3nc2S)cc1 (stereo not given) | 250 (≈ 709 µM) | 15 | 17 | 19 | 19 | 20 | 20 | 100 (≈ 284 µM) | 100 (≈ 284 µM) | 100 (≈ 284 µM) | 100 (≈ 284 µM) | 100 (≈ 284 µM) | 100 (≈ 284 µM)
5 | O=C1CSC(c2cc3ccccc3nc2S)N1c1ccccc1[N+](=O)[O-] (stereo not given) | 250 (≈ 652 µM) | 22 | 23 | 23 | 23 | 22 | 23 | 62.5 (≈ 163 µM) | 50 (≈ 130 µM) | 25 (≈ 65.2 µM) | 62.5 (≈ 163 µM) | 62.5 (≈ 163 µM) | 62.5 (≈ 163 µM)
6 | O=C1CSC(c2cc3ccccc3nc2S)N1c1cccc([N+](=O)[O-])c1 (stereo not given) | 125 (≈ 326 µM) | 20 | 23 | 23 | 24 | 22 | 22 | 100 (≈ 261 µM) | 25 (≈ 65.2 µM) | 25 (≈ 65.2 µM) | 6.25 (≈ 16.3 µM) | 50 (≈ 130 µM) | 50 (≈ 130 µM)
7 | O=C1CSC(c2cc3ccccc3nc2S)N1c1ccc([N+](=O)[O-])cc1 (stereo not given) | 62.5 (≈ 163 µM) | 18 | 25 | 24 | 23 | 23 | 23 | 100 (≈ 261 µM) | 25 (≈ 65.2 µM) | 12.5 (≈ 32.6 µM) | 6.25 (≈ 16.3 µM) | 50 (≈ 130 µM) | 12.5 (≈ 32.6 µM)
8 | O=C1CSC(c2cc3ccccc3nc2S)N1c1ccccc1Cl (stereo not given) | 125 (≈ 335 µM) | 22 | 21 | 23 | 23 | 23 | 25 | 100 (≈ 268 µM) | 62.5 (≈ 168 µM) | 62.5 (≈ 168 µM) | 12.5 (≈ 33.5 µM) | 12.5 (≈ 33.5 µM) | 6.25 (≈ 16.8 µM)
9 | O=C1CSC(c2cc3ccccc3nc2S)N1c1cccc(Cl)c1 (stereo not given) | 125 (≈ 335 µM) | 22 | 25 | 25 | 22 | 24 | 25 | 62.5 (≈ 168 µM) | 50 (≈ 134 µM) | 12.5 (≈ 33.5 µM) | 50 (≈ 134 µM) | 3.12 (≈ 8.37 µM) | 6.25 (≈ 16.8 µM)
10 | O=C1CSC(c2cc3ccccc3nc2S)N1c1ccc(Cl)cc1 (stereo not given) | 62.5 (≈ 168 µM) | 24 | 25 | 24 | 23 | 25 | 25 | 100 (≈ 268 µM) | 12.5 (≈ 33.5 µM) | 25 (≈ 67 µM) | 25 (≈ 67 µM) | 3.12 (≈ 8.37 µM) | 6.25 (≈ 16.8 µM)
11 | O=C1CSC(c2cc3ccccc3nc2S)N1c1ccc(F)cc1 (stereo not given) | 62.5 (≈ 175 µM) | 26 | 26 | 24 | 24 | 25 | 25 | 25 (≈ 70.1 µM) | 12.5 (≈ 35.1 µM) | 50 (≈ 140 µM) | 12.5 (≈ 35.1 µM) | 6.25 (≈ 17.5 µM) | 3.12 (≈ 8.75 µM)
12 | Cc1cnc(N2C(=O)CSC2c2cc3ccccc3nc2S)s1 (stereo not given) | 62.5 (≈ 174 µM) | 24 | 23 | 23 | 24 | 24 | 23 | 62.5 (≈ 174 µM) | 62.5 (≈ 174 µM) | 62.5 (≈ 174 µM) | 12.5 (≈ 34.8 µM) | 25 (≈ 69.5 µM) | 12.5 (≈ 34.8 µM)
13 | O=C(O)c1cn(C2CC2)c2cc(N3CCNCC3)c(F)cc2c1=O [CIPROFLOXACIN] |  |  |  | 33 | 32 | 30 | 31 |  |  | ≤ 1 | ≤ 1 | ≤ 1 | ≤ 1
14 | NNC(=O)c1ccncc1 [ISONIAZID] | 0.2 (≈ 1.46 µM) |  |  |  |  |  |  |  |  |  |  |  | 
15 | CC(=O)N1CCN(c2ccc(OCC3COC(Cn4ccnc4)(c4ccc(Cl)cc4Cl)O3)cc2)CC1 (stereo not given) [KETOCONAZOLE] |  | 33 | 30 |  |  |  |  | ≤ 1 | ≤ 3 |  |  |  | 
16 | CO[C@H]1/C=C/O[C@@]2(C)Oc3c(C)c(O)c4c(O)c(c(/C=N/N5CCN(C)CC5)c(O)c4c3C2=O)NC(=O)/C(C)=C\C=C\[C@H](C)[C@H](O)[C@@H](C)[C@@H](O)[C@@H](C)[C@H](OC(C)=O)[C@@H]1C [RIFAMPIN] | 40 (≈ 48.6 µM) |  |  |  |  |  |  |  |  |  |  |  | 
